In patent US20120136416A1, “Caged Neuropeptides: modulation and measurement of synapse and signaling activity; and methods for drug evaluation, pharmaceuticals preparation and treatment” (PRESIDENT AND FELLOWS OF HARVARD COLLEGE, priority 2010, published 2012):

Experiments:
[1] = test system: locus coeruleus (LC) neurons; assay: Whole-cell recordings from locus coeruleus neurons in acute brain slices, local perfusion or UV uncaging; type: cell-based, rat
[2] = biological target: human kappa opioid receptors (OPRK1) (Homo sapiens, UniProt P41145); type: cell-based
[3] = test system: CA1 region of the hippocampus; assay: Extracellular field potential recordings (population spike) in acute hippocampal slices, UV uncaging; type: cell-based, mice
Protocol: Preliminary electrophysiological evaluation was carried out in transverse hippocampal slices from P15-18 mice and focused on inhibitory neurons, the predominant cells expressing Mu and Delta opioid receptors in the CA1 region. Initial neurophysiological evaluations were carried out in acute hippocampal slices from P24-30 mice. […] Extracellular field potential recordings reveal this as an increase in the population spike (pSpike) amplitude in response to Schaeffer collateral stimulation at 0.1 Hz. […] These experiments confirmed that photolysis in living tissue elicits a physiological response.

Chain of human kappa opioid receptors (OPRK1) (P41145 whole entry, looked up): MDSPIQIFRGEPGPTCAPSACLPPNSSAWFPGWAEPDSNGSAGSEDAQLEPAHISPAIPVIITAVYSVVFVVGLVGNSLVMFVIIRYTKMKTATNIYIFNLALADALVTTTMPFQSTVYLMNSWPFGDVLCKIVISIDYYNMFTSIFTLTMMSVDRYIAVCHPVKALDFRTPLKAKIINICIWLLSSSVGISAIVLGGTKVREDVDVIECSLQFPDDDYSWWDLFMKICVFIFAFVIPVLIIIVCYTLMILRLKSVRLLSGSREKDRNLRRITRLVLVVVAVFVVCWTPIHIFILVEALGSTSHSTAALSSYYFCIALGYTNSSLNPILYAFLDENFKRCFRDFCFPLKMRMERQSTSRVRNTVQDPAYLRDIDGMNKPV

`Nc1ccncc1` [4-AP] was tested, and the “effect on residual Ba^2+-insensitive outward current” value [1] was “unable to block or occlude”.

With `[Ba+2].[Cl-].[Cl-]` [Ba^2+, BaCl2] the outward current blocked [1] was 80%.

With `[Cl][Cd][Cl]` [Cd^2+, CdCl2] the “effect on residual Ba^2+-insensitive outward current” value [1] was “unable to block or occlude”.

With `CC(C)C[C@H](NC(=O)[C@H](Cc1ccccc1)NC(=O)CNC(=O)CNC(=O)[C@@H](N)Cc1ccc(O)cc1)C(=O)O` [L-Enk, Leu-Enkephalin] the “activation of kappa receptors” value [2] was “did not activate”.

`CC1(C)[C@@H](OC(=O)CCC(=O)O)CC[C@]2(C)[C@H]3C(=O)C=C4[C@@H]5C[C@@](C)(C(=O)O)CC[C@]5(C)CC[C@@]4(C)[C@]3(C)CC[C@@H]12` [carbenoxolone] was tested, and the “effect on responses to the uncaging stimuli” value ([1]; 100 uM, n=10 cells) was “not significantly attenuated”.

In the case of `C=CCN1CC[C@]23c4c5ccc(O)c4O[C@H]2C(=O)CC[C@@]3(O)[C@H]1C5` [naloxone], the “effect on light-evoked pSpike increases” value [3] is reported as “blocked” and the “effect on light-evoked outward current” value ([1]; 2 μM, uncaging of 10 μM CYLE) is reported as “blocked”.

ZD7288 was tested, and the “effect on residual Ba^2+-insensitive outward current” value [1] was “unable to block or occlude”.
